In ChEMBL document CHEMBL1152336, “Characterization of the tautomycetin biosynthetic gene cluster from Streptomyces griseochromogenes provides new insight into dialkylmaleic anhydride biosynthesis” (J Nat Prod, 2009):

Experiments:
[1] = Selectivity ratio of IC50 for PP2A over IC50 for PP1
[2] = Inhibition of PP1
[3] = Inhibition of PP2A

## C=C/C(=C/C(=O)C[C@H](C)C[C@@H](C)CC[C@H](O)[C@H](C)C(=O)C[C@@H](O)[C@H](C)[C@@H](C)OC(=O)C[C@@H](C)C1=C(C)C(=O)OC1=O)CC [TAUTOMYCETIN]
[1]
  Ratio IC50: 40

## CO[C@H]([C@H](O)CC(=O)[C@@H](C)[C@@H](O)CC[C@@H](C)[C@@H]1O[C@]2(CC[C@@H](C)[C@H](CC[C@H](C)C(C)=O)O2)CC[C@@H]1C)[C@H](OC(=O)C[C@@H](O)C1=C(C)C(=O)OC1=O)C(C)C [TAUTOMYCIN]
[2]
  IC50: 22 nM
[3]
  IC50: 22 nM
